Here are results for one substance from patent EP0533849B1 (ROUSSEL UCLAF, priority 1991, dated 1992).

In this test the target is Sucrose Phosphate Synthase (Zea mays, UniProt P31927). Particulars: phosphate gradient of the HAC (hydroxyapatite) stage.
Sucrose Phosphate Synthase, sequence (P31927 whole entry): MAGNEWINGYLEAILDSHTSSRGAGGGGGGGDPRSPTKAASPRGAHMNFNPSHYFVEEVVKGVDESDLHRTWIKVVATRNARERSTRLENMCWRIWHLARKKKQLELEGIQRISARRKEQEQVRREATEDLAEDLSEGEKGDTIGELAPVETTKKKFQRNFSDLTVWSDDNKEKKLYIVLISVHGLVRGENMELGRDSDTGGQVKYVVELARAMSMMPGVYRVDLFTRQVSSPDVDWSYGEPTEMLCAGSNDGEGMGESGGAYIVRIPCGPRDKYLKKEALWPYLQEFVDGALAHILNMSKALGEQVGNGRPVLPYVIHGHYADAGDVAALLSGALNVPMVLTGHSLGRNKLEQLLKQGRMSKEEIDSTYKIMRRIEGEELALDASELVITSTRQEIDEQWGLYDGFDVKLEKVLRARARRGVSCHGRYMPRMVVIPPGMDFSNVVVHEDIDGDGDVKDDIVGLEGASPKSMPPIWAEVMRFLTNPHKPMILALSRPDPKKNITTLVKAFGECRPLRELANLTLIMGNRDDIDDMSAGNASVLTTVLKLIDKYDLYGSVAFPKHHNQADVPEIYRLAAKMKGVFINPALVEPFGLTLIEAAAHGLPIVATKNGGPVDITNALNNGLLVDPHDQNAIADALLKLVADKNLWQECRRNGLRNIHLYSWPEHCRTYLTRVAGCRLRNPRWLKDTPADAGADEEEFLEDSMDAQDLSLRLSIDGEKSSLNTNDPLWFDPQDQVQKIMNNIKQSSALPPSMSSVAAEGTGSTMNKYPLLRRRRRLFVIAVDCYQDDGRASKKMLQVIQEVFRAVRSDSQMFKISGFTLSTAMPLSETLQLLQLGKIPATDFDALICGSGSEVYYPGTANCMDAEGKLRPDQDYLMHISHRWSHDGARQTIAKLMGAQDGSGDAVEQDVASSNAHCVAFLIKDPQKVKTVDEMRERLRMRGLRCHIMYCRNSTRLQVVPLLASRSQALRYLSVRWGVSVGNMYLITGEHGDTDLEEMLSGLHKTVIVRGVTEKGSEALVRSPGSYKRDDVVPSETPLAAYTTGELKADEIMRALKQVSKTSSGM

Procedure: During purification SPS activity is followed in 2 ways : • a) either by means of a colorimetric test (P.S. Kerr et al., Planta., 1987, 170 : 515-519) called resorcinol test described below. […] In practice, to 45 µl (microliter) of enzymatic preparation 25 µl of a buffered solution containing the two substrates is added (UDPG 70 mM, F6P 28 mM, MgCl2 15 mM, HEPES 25 mM pH 7,5). After incubation at 37°C, reaction is stopped by adding 70 µl of NaOH in solution and heating at 95°C during 10 mn. After cooling, 0,25 ml of a solution 0,1 % resorcinol in ethanol 95 % is added, then 0,75 ml of HCl 30 % is added. The OD 520 mM is read after incubation 8 mn at 80 mn, and cooling. • b) or by means of a coupled enzymatic system (S. Harbron et al., Anal. Biochem. 1980, 107 : 56-59) being composed in the following way : [drawing 3]
The disappearance of the NADH absorption at 340 nm is monitored 1 mole of NAD formed or 1 mole of NADH consumed corresponds to 1 mole of sucrose 6 P formed.
In pratice, in a quartz spectrophotometric tun thermostated at 37°C, the following solution are added. • 540 µl of HEPES buffered 50 mM, MgCl2 10 mM KCl 20 mM pH=7.5, • 250 µl of a mixture of substrates PEP (1,6 mM NaDH 0,6 mM, ATP 4 mM UDPG 112 mM), • 60 µl of an enzyme mixture (LDH 166,7 U/ml PK 333,3 U/ml, NPzK 66,7 U/ml), • 100 µl of F6P 112 mM. […]

On to phosphate, for which the “inhibition of SPS activity” value is listed as “partially inhibit SPS activity”.
